# Test results published in US6737383B1, “Herbicidal oxadiazolidines” (priority 1999, dated 2004).
# Assays:
# cocklebur = assay: Test B pre/postemergence cocklebur; type: in vivo, Xanthium strumarium
# How it was run: (§1)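 Herbicidal effect was estimated by eye on a ten-point control scale after plants spent twelve to sixteen days in a greenhouse following soil or foliar treatment. Foliar sprays targeted plants at one to four leaves; all doses were formulated in a non-phytotoxic solvent with surfactant.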
# duck salad = assay: Test B flood test duck salad; type: in vivo, Heteranthera limosa
# How it was run: (§2)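 Flood test on plants grown to the 2-leaf stage; treated plants kept in greenhouse twelve to sixteen days, then visually rated against controls on a 0 (no effect) to 10 (complete control) scale.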
# pigweed = assay: Test B pre/postemergence pigweed; type: in vivo, Amaranthus retroflexus
# How it was run: as §1
# smallflower flatsedge = assay: Test B flood test smallflower flatsedge; type: in vivo, Cyperus difformis
# How it was run: as §2
# bamyardgrass = assay: Test B flood test barnyardgrass; type: in vivo, Echinochloa crus-galli
# How it was run: as §2
# rape = assay: Test B pre/postemergence rape; type: in vivo, Brassica napus
# How it was run: as §1
# surinam grass = assay: Test B pre/postemergence surinam grass; type: in vivo, Brachiaria decumbens
# How it was run: as §1
# purple nutsedge = assay: Test B pre/postemergence purple nutsedge; type: in vivo, Cyperus rotundus
# How it was run: as §1
# soybean = assay: Test B pre/postemergence soybean; type: in vivo, Glycine max
# How it was run: as §1
# wheat = assay: Test B pre/postemergence wheat; type: in vivo, Triticum aestivum
# How it was run: as §1
# sugar beet = assay: Test B pre/postemergence sugar beet; type: in vivo, Beta vulgaris
# How it was run: as §1
# blackgrass = assay: Test B pre/postemergence blackgrass; type: in vivo, Alopecurus myosuroides
# How it was run: as §1
# morningglory = assay: Test B pre/postemergence morningglory; type: in vivo, Ipomoea hederacea
# How it was run: as §1
# giant foxtail = assay: Test B pre/postemergence giant foxtail; type: in vivo, Setaria faberii
# How it was run: as §1
# bedstraw = assay: Test B pre/postemergence bedstraw; type: in vivo, Galium aparine
# How it was run: as §1
# wild oat = assay: Test B pre/postemergence wild oat; type: in vivo, Avena fatua
# How it was run: as §1
# [1] = Preemergence, Rate 62 g/ha, scale of 0 to 10 where 0 is no effect and 10 is complete control
# [2] = Preemergence, Rate 250 g/ha, scale of 0 to 10 where 0 is no effect and 10 is complete control
# [3] = Preemergence, Rate 500 g/ha, scale of 0 to 10 where 0 is no effect and 10 is complete control
# [4] = Rate 62 g/ha, Postemergence, scale of 0 to 10 where 0 is no effect and 10 is complete control
# [5] = Rate 125 g/ha, Postemergence, scale 0 to 10
# [6] = Rate 125 g/ha, Preemergence, scale of 0 to 10 where 0 is no effect and 10 is complete control
# [7] = Rate 500 g/ha, Postemergence, scale 0 to 10, 0 no effect, 10 complete control
# [8] = Rate 62 g/ha, headed Pre-emergence (flood test species), scale 0 to 10 (0 no effect, 10 complete control)
# [9] = Rate 125 g/ha, Pre-emergence, flood test species, scale 0 to 10 where 0 is no effect and 10 is complete control
# [10] = Rate 250 g/ha, Pre-emergence, flood-test species, scale 0 to 10, 0 is no effect, 10 is complete control
# [11] = Rate 500 g/ha, Pre-emergence, flood test species, scale 0 to 10 (0 no effect, 10 complete control)
smiles,measurement,setting,value
COc1cc(C)cc(C)c1-n1c(=O)on(C(=O)N(c2ccc(F)cc2F)C(C)C)c1=O [Compound 223],Cocklebur plant response rating,cocklebur; [1],0
same,Cocklebur plant response rating,cocklebur; [2],0
same,"Plant response rating, Cocklebur",cocklebur; [3],0
same,Cocklebur plant response rating,cocklebur; [4],0
same,Cocklebur plant response rating,cocklebur; [5],0
same,Cocklebur plant response rating,cocklebur; [6],0
same,"Plant response rating (0 to 10; 0 is no effect, 10 is complete control), Cocklebur","cocklebur; Rate 250 g/ha, Postemergence",0
same,Cocklebur plant response rating,cocklebur; [7],2
same,Ducksalad plant response rating,duck salad; [8],0
same,Ducksalad plant response rating,duck salad; [9],0
same,Ducksalad plant response rating,duck salad; [10],0
same,Ducksalad plant response rating,duck salad; [11],0
same,Redroot pigweed plant response rating,pigweed; [1],0
same,Redroot pigweed plant response rating,pigweed; [2],7
same,"Plant response rating, Redroot pigweed",pigweed; [3],7
same,Redroot pigweed plant response rating,pigweed; [4],0
same,Redroot pigweed plant response rating,pigweed; [5],2
same,Redroot pigweed plant response rating,pigweed; [6],0
same,"Plant response rating (0 to 10; 0 is no effect, 10 is complete control), Redroot pigweed","pigweed; Rate 250 g/ha, Postemergence",3
same,Redroot pigweed plant response rating,pigweed; [7],5
same,S. Flatsedge plant response rating,smallflower flatsedge; [8],0
same,S. Flatsedge plant response rating,smallflower flatsedge; [9],0
same,S. Flatsedge plant response rating,smallflower flatsedge; [10],0
same,S. Flatsedge plant response rating,smallflower flatsedge; [11],0
same,Barnyardgrass plant response rating,bamyardgrass; [8],0
same,Barnyardgrass plant response rating,bamyardgrass; [9],0
same,Barnyardgrass plant response rating,bamyardgrass; [10],0
same,Barnyardgrass plant response rating,bamyardgrass; [11],0
same,Rape plant response rating,rape; [1],0
same,Rape plant response rating,rape; [2],0
same,"Plant response rating, Rape",rape; [3],0
same,Rape plant response rating,rape; [4],0
same,Rape plant response rating,rape; [5],0
same,Rape plant response rating,rape; [6],0
same,"Plant response rating (0 to 10; 0 is no effect, 10 is complete control), Rape","rape; Rate 250 g/ha, Postemergence",0
same,Rape plant response rating,rape; [7],0
same,B. signalgrass plant response rating,surinam grass; [1],0
same,B. signalgrass plant response rating,"surinam grass; Preemergence, Rate 250 g/ha, scale 0 to 10, 0 is no effect, 10 is complete control",3
same,"Plant response rating, B. signalgrass",surinam grass; [3],4
same,B. signalgrass plant response rating,surinam grass; [4],0
same,B. signalgrass plant response rating,"surinam grass; Rate 125 g/ha, Postemergence, scale 0 (no effect) to 10 (complete control)",0
same,B. signalgrass plant response rating,surinam grass; [6],0
same,"Plant response rating (0 to 10; 0 is no effect, 10 is complete control), B. signalgrass","surinam grass; Rate 250 g/ha, Postemergence",0
same,B. signalgrass plant response rating,surinam grass; [7],0
same,Nutsedge plant response rating,purple nutsedge; [1],0
same,Nutsedge plant response rating,purple nutsedge; [4],0
same,Nutsedge plant response rating,purple nutsedge; [5],0
same,Nutsedge plant response rating,purple nutsedge; [6],0
same,"Plant response rating (0 to 10; 0 is no effect, 10 is complete control), Nutsedge","purple nutsedge; Rate 250 g/ha, Postemergence",0
same,Nutsedge plant response rating,purple nutsedge; [7],0
same,Soybean plant response rating,soybean; [1],0
same,Soybean plant response rating,soybean; [2],0
same,"Plant response rating, Soybean",soybean; [3],0
same,Soybean plant response rating,soybean; [4],3
same,Soybean plant response rating,soybean; [5],3
same,Soybean plant response rating,soybean; [6],0
same,"Plant response rating (0 to 10; 0 is no effect, 10 is complete control), Soybean","soybean; Rate 250 g/ha, Postemergence",3
same,Soybean plant response rating,soybean; [7],4
same,Wheat plant response rating,wheat; [1],0
same,Wheat plant response rating,wheat; [2],0
same,"Plant response rating, Wheat",wheat; [3],0
same,Wheat plant response rating,wheat; [4],0
same,Wheat plant response rating,wheat; [5],0
same,Wheat plant response rating,wheat; [6],0
same,"Plant response rating (0 to 10; 0 is no effect, 10 is complete control), Wheat","wheat; Rate 250 g/ha, Postemergence",0
same,Wheat plant response rating,wheat; [7],0
same,Sugarbeets plant response rating,sugar beet; [1],0
same,Sugarbeets plant response rating,sugar beet; [2],0
same,"Plant response rating, Sugarbeets",sugar beet; [3],0
same,Sugarbeets plant response rating,sugar beet; [4],0
same,Sugarbeets plant response rating,sugar beet; [5],1
same,Sugarbeets plant response rating,sugar beet; [6],0
same,"Plant response rating (0 to 10; 0 is no effect, 10 is complete control), Sugarbeets","sugar beet; Rate 250 g/ha, Postemergence",2
same,Sugarbeets plant response rating,sugar beet; [7],3
same,Blackgrass plant response rating,blackgrass; [1],0
same,Blackgrass plant response rating,blackgrass; [2],4
same,"Plant response rating, Blackgrass",blackgrass; [3],5
same,Blackgrass plant response rating,blackgrass; [4],0
same,Blackgrass plant response rating,blackgrass; [5],0
same,Blackgrass plant response rating,blackgrass; [6],1
same,"Plant response rating (0 to 10; 0 is no effect, 10 is complete control), Blackgrass","blackgrass; Rate 250 g/ha, Postemergence",3
same,Blackgrass plant response rating,blackgrass; [7],1
same,Morningglory plant response rating,morningglory; [1],0
same,Morningglory plant response rating,morningglory; [2],1
same,"Plant response rating, Morningglory",morningglory; [3],1
same,Morningglory plant response rating,morningglory; [4],1
same,Morningglory plant response rating,morningglory; [5],3
same,Morningglory plant response rating,morningglory; [6],1
same,"Plant response rating (0 to 10; 0 is no effect, 10 is complete control), Morningglory","morningglory; Rate 250 g/ha, Postemergence",4
same,Morningglory plant response rating,morningglory; [7],6
same,Giant foxtail plant response rating,giant foxtail; [1],7
same,"Plant response rating, Giant foxtail",giant foxtail; [3],9
same,Giant foxtail plant response rating,giant foxtail; [4],0
same,Giant foxtail plant response rating,giant foxtail; [5],0
same,Giant foxtail plant response rating,giant foxtail; [6],9
same,"Plant response rating (0 to 10; 0 is no effect, 10 is complete control), Giant foxtail","giant foxtail; Rate 250 g/ha, Postemergence",0
same,Giant foxtail plant response rating,giant foxtail; [7],1
same,Bedstraw plant response rating,bedstraw; [1],0
same,Bedstraw plant response rating,bedstraw; [2],0
same,"Plant response rating, Bedstraw",bedstraw; [3],3
same,Bedstraw plant response rating,bedstraw; [4],3
same,Bedstraw plant response rating,bedstraw; [5],3
same,Bedstraw plant response rating,bedstraw; [6],0
same,"Plant response rating (0 to 10; 0 is no effect, 10 is complete control), Bedstraw","bedstraw; Rate 250 g/ha, Postemergence",4
same,Bedstraw plant response rating,bedstraw; [7],5
same,Wild oats plant response rating,wild oat; [2],2
same,"Plant response rating, Wild oats",wild oat; [3],4
same,Wild oats plant response rating,wild oat; [4],0
same,Wild oats plant response rating,wild oat; [5],0
same,Wild oats plant response rating,wild oat; [6],0
same,"Plant response rating (0 to 10; 0 is no effect, 10 is complete control), Wild oats","wild oat; Rate 250 g/ha, Postemergence",0
same,Wild oats plant response rating,wild oat; [7],2
